The nature of series [1]: Stability assessment of Form CS3 stored at 25° C./60% RH. The class given is physicochemical. As to the method:
Form CS3 of the present disclosure was stored at 25° C./60% RH for 90 days. Samples were taken after 15, 30 and 90 days to investigate the stability of From CS3. […] XRPD patterns overlay before and after storage for 90 days was substantially as depicted in FIG. 15.

The nature of series [2]: Hygroscopicity test by dynamic vapor sorption (DVS), XRPD before and after. It counts as physicochemical. The conditions noted are these: 40%-95%-0-95% RH cycle at 25° C. As to the method: Dynamic Vapor Sorption (DVS) is measured via a SMS (Surface Measurement Systems Ltd.) intrinsic DVS. Typical Parameters for DVS test are as follows: Temperature: 25° C. Gas and flow rate: N2, 200 mL/min dm/dt: 0.002%/min RH range: 0% RH to 95% RH 6.2 mg of monohydrochloride Form CS2 was placed into dynamic vapor sorption (DVS) instrument, and then went through a 40%-95%-0-95% RH cycle at 25° C. The DVS plot was substantially as depicted in FIG. 10. The XRPD patterns overlay of solids before and after DVS test was substantially as depicted in FIG. 11 (Top: XRPD pattern before DVS; Bottom: XRPD pattern after DVS). […] 7.9 mg of dihydrochloride Form CS3 was placed into dynamic vapor sorption (DVS) instrument, and then went through a 40%-95%-0-95% RH cycle at 25° C. The DVS plot was substantially as depicted in FIG. 12. The XRPD patterns overlay of solids before and after DVS test was substantially as depicted in FIG. 13 (Top: XRPD pattern before DVS; Bottom: XRPD pattern after DVS).

The nature of series [3]: Particle size distribution (PSD), laser particle size analyzer, wet process. It counts as physicochemical. To be noted: volume distribution, dispersion medium Isopar G. As to the method:
The particle size distribution test in the present disclosure is acquired by the S3500 laser particle size analyzer of Microtrac. Microtrac S3500 is equipped with the SDC (Sample Delivery Controller). The test is carried out by wet process, and the dispersion medium is Isopar G The parameters are as follow: [table] Mv: Average particle size calculated by volume. D10: particle size which accounts for 10% of the particle size distribution (volume distribution). D50: particle size which accounts for 50% of the particle size distribution (volume distribution), also known as the median particle size. D90: particle size which accounts for 90% of the particle size distribution (volume distribution). PSD was performed on Form CS3 of the present disclosure and Form C of WO2016179415.

The nature of series [4]: Mechanical stability: grinding in agate mortar, XRPD. It counts as physicochemical. To be noted: grinding for 5 minutes in agate mortar. As to the method:
A certain amount of Form C of WO2016179415, Form CS2 and Form CS3 samples were placed in an agate mortar. After grinding for 5 minutes, the obtained solid was collected for XRPD characterization. The results of Form C of WO2016179415, Form CS2 and Form CS3 were substantially as depicted in FIG. 16, FIG. 17 and FIG. 18, respectively.

For series [5] the following is noted: stored at 80° C. for 7 days; cited from earlier work.
The nature of series [6]: Dynamic solubility (saturated solutions, HPLC). The class given is physicochemical. The conditions noted are these: monohydrochloride. As to the method:
High Performance Liquid Chromatography (HPLC) data in the present disclosure are collected from Agilent 1100 with diode array detector (DAD). The HPLC method parameters for solubility test in the present disclosure are as follows:
4. Injection Volume: 4 μL
5. Detection wavelength: 230 nm
6. Column Temperature: 40° C.
7. Diluent: 50% Acetonitrile
Form CS2 of the present disclosure and Form C of WO2016179415 were suspended into SGF (Simulated gastric fluids) and water to get saturated solutions. After equilibrated for 1 h and 4 h, concentrations of the saturated solutions were measured by HPLC.

The nature of series [7]: Stability assessment of Form CS2 stored at 5° C. (XRPD and HPLC). The class given is physicochemical. The conditions noted are these: for Purity: HPLC; for Solid Form: XRPD. The method, then:
Form CS2 of the present disclosure was stored at 5° C. Samples were taken after 15 and 30 days to test XRPD and HPLC. The stability of From CS2 was mainly investigated. […] XRPD patterns overlay before and after storage for 30 days was substantially as depicted in FIG. 14.

SMILES strings stand for the structures. Where a name gives a salt, the structure may show the parent alone.

We go through four compounds from patent US10604521B2, “Crystalline forms of PLX3397 hydrochloride, processes for preparation and use thereof” (Crystal Pharmaceutical (Suzhou) Co., Ltd., priority 2016, dated 2020).

For orientation: Solubility means the concentration that dissolves in the medium under given conditions.

For `FC(F)(F)c1ccc(CNc2ccc(Cc3c[nH]c4ncc(Cl)cc34)cn2)cn1` [Form CS3, PLX3397 dihydrochloride], in series [1] (15 days), the Purity turned out to be 99.60% and the “Solid Form” value was “No form change”. In series [1] (30 days), the Purity was 99.64% and the “Solid Form” value is “No form change”. In addition, in series [1] (90 days), the Purity was determined as 99.50% and the “Solid Form” value is “No form change”. For the same compound, in series [1] (Initial), the Purity is 99.51% and the “Solid Form” value was “No form change”. Further, the “Form change after DVS test” value in series [2] is reported as “No form change”. Further, in series [3] (dihydrochloride), the “D(10)” value came to 6.55 μm, the “D(50)” value was determined as 47.85 μm and the “D(90)” value was 194.3 μm. Also, the “Crystalline form after grinding” value in series [4] (dihydrochloride) is “crystallinity of Form CS2 and Form CS3 decreased but the crystalline forms remained unchanged”.

For `FC(F)(F)c1ccc(CNc2ccc(Cc3c[nH]c4ncc(Cl)cc34)cn2)cn1` [Form A, PLX3397 monohydrochloride], the “Form change on storage” value in series [5] was “converted to Form C”.

In the case of `FC(F)(F)c1ccc(CNc2ccc(Cc3c[nH]c4ncc(Cl)cc34)cn2)cn1` [Form CS2, PLX3397 monohydrochloride], the Solubility in series [6] (H2O, 1 h) worked out at 2170 µg/mL; in series [6] (H2O, 4 h), 1290 µg/mL; in series [6] (SGF, 1 h) it was 1130 µg/mL; in series [6] (SGF, 4 h) it was 1280 µg/mL. Moreover, the Purity in series [7] (15 days) came to 99.45%; in series [7] (30 days), 99.44%; in series [7] (Initial), 99.53%. The “Solid Form” value in series [7] (15 days), in series [7] (30 days) and in series [7] (Initial) was “No form change” throughout. Further, the “Form change after DVS test” value in series [2] is recorded as “No form change”. In series [4] (monohydrochloride), the “Crystalline form after grinding” value was “crystallinity of Form CS2 and Form CS3 decreased but the crystalline forms remained unchanged”.

Regarding `FC(F)(F)c1ccc(CNc2ccc(Cc3c[nH]c4ncc(Cl)cc34)cn2)cn1` [Form C, PLX3397 monohydrochloride, reference compound], the Solubility in series [6] (H2O, 1 h) was 80 µg/mL; in series [6] (H2O, 4 h), 600 µg/mL; in series [6] (SGF, 1 h), 490 µg/mL; in series [6] (SGF, 4 h), 560 µg/mL. For the same compound, in series [3] (monohydrochloride), the “D(10)” value amounted to 2.35 μm. Also, in series [3] (monohydrochloride), the “D(50)” value is recorded as 18.26 μm. For the same compound, the “D(90)” value in series [3] (monohydrochloride) worked out at 118.8 μm. For the same compound, the “Crystalline form after grinding” value in series [4] (listed as Form C of WO2016179415, monohydrochloride) is “substantially changed to amorphous”.
